Source: patent US20090081322A1, “Process for the preparation of antioxidant conserve from Indian curry leaves (MURRAYA KOENIGII SPRENG.)” (Council of Scientific and Industrial Research, priority 2002, published 2009)

Assay: Antioxidant assay by β-carotene-linoleate model system
Type: biochemical
Conditions: 100 ppm concentration; β-carotene bleaching, 90 min incubation at 50° C.
Method: The antioxidant activity of curry leaves extract was evaluated by the β-carotene-linoleate model (Jayaprakasha and Jaganmohan Rao, Z. Naturforsch. 55C, 1018-1022, 2000). 0.2 mg of the β-carotene in 0.5 ml of chloroform, 20 mg of linoleic acid and 200 mg of Tween-40 (polyoxyethylene sorbitan monopalmitate) were mixed together. The chloroform was removed at 40° C. under vacuum using a rotary evaporator. The resulting solution was immediately diluted with 10 ml of triple-distilled water and the emulsion was mixed well for 1 min. The emulsion was further diluted with 40 ml of oxygenated water before use. 4 ml aliquots of this mixture were transferred into different tubes containing 0.2 ml of samples at 100 ppm concentrations in ethanol, butylated hydroxyanisole (BHA) was used for comparative purposes. A control containing 0.2 ml of ethanol and 4 ml of the above mixture was prepared. Optical density (OD) at 470 nm were taken for the all extracts and pure compounds immediately (t=0) at 15 min intervals for 1.5 h (t=90). […] The antioxidant activities (AA) of the samples were evaluated in terms of bleaching the β-carotene using the following formula. AA=100[1−(Ao−At)/(A^oo−A^ot)] where Ao and A^oo are the OD measured at zero time of incubation for test sample and control, respectively. At and A^ot are the OD measured in the test sample and control, respectively, after incubation for 90 min.

Compound: COc1ccc(O)c(C(C)(C)C)c1 [BHA, butylated hydroxy anisole]
- antioxidant activity: 90.2%
